In this assay the test system is HEK293T cells expressing msGFP–HaloTag localized to the mitochondrial outer membrane. As to the kind of experiment: HEK293T labeling and fluorescence microscopy. The format is cell-based. From the text:
Plasmid construction for mitochondria imaging and affinity purification. HaloTag, amplified from the pHTC HaloTag CMV-neo Vector (Promega; G7711) and monomeric-superfolder green fluorescent protein (msGFP; lab stock), was fused to the mitochondrial targeting signal from OMP25,8 interspacing flexible GS(GSS)4 linkers between each domain by PCR Splicing by Overlap Extension (SOE). This construct was subcloned into hSynapsin promoter bearing a copy of FUGW.9 FUGW was a gift from David Baltimore (Addgene plasmid # 14883; RRID:
Addgene_14883).10 This construct was designated as pF(UG) hSyn HaloTag-TEV-4×GS-msGFP- […]
HEK293T cell culture. HEK293T cells (ATCC) were passaged before 80% confluency by trypsinization (Corning; 25-053-CI) and trituration. The cell suspension was then plated on glass coverslips (Warner instruments; 64-0734, CS-18R17) coated with poly-D-lysine (Thermofisher; ICN10269491) and cultured in Dulbecco's modified Eagle medium (DMEM; ThermoFisher; 11965-118) supplemented with 10% (v/v) fetal bovine serum (FBS, Atlanta Biological) and penicillin/streptomycin (pen/strep; ThermoFisher; MT-30-001-CI) at 37 °C in a humidified 5% (v/v) CO2 environment following ATCC guidelines. These HEK293T cells were tested for mycoplasma contamination using the Universal Mycoplasma Detection Kit (ATCC; 30-1012K) and validated using Short Tandem Repeat profiling by ATCC (ATCC; 135-XV) within the previous year or were from newly purchased stock from ATCC. HEK293T cells were transfected with pF(UG) hSyn HaloTag-TEV-4×GS-msGFP-mito using a standard calcium phosphate protocol11 or using lipofectamine LTX reagent (ThermoFisher; 15338100). We note that this plasmid is optimized for lentivirus-mediated expression, but robust expression in HEK293T cells […]
HEK293T labeling and fluorescence microscopy. One day after HEK293T cell transfection, the GFP fluorescence signal was confirmed, and HaloTag ligand labeling experiments were conducted. For pulse–chase experiments, HEK293T cells were incubated with biotin-HaloTag ligand (17HTL; #G8281, Promega) at either 100 nM or 10 μM for 1 hour at 37 °C and chased with 100 nM of JF549-HaloTag ligand (2HTL). We also evaluated a commercial biotin-HaloTag ligand […]
indicated in the product information12 and from a previous publication.13 For labeling with biotin-JF-HaloTag ligands 13HTL–16HTL, cells were incubated with 100 nM or 1 µM ligand for 0.5–2 h at 37 °C. For imaging, the coverslips containing HEK293T cells were fixed with 4% (w/v) paraformaldehyde in PBS at 37 °C for 10 min, washed with PBS (3×), and mounted on glass slides with ProLong Glass Antifade Mountant with NucBlueTM Stain (ThermoFisher; P36981). These cells were imaged using a Zeiss LSM 880 with Airyscan and a plan-apochromatic 63×/1.40 oil objective in Fast Airyscan mode. The same image acquisition settings were used for each trial and condition. Images were then processed with automatic Airyscan deconvolution settings. For quantitation of labeling intensity, ROIs were drawn surrounding individual HEK cells, and the average fluorescence ratio (JF/msGFP) from multiple cells in each condition was measured; no background subtraction was necessary. […]
JF608-HaloTag ligand (14HTL), biotin-JF646-HaloTag ligand (15HTL), or biotin-JF635-HaloTag ligand (16HTL) for 1 h at 37 °C, washed 3× with dye-free media, then fixed with 4% paraformaldehyde in 0.1 M phosphate buffer for 15 min at 37 °C. Fixed cells were then washed 3× in 1× PBS and incubated with Hoechst 33342 (5µg/mL) for 15 min at 22 °C as a nuclear counterstain. Airyscan imaging was performed on a Zeiss LSM 980 with Airyscan 2 confocal microscope using a Plan APO 63×/1.4 oil DIC M27 objective. The same acquisition settings were used for all constructs labeled with 13HTL–16HTL. These single plane images were bulk processed in ZEN Blue (Zeiss) with automatic Airyscan settings.
Dye loading kinetics. Live U2OS.H2B.HaloTag stable cells were labeled over a time course of […]
For `O=C(CCCCC1SCC2NC(=O)NC21)NCCOCCOCCNC(=O)C1C[N+](=c2ccc3c(-c4cc(C(=O)NCCOCCOCCCCCCCl)ccc4C(=O)[O-])c4ccc(N5CCC5)cc4oc-3c2)C1` (stereo not drawn) [13HTL, biotin–JF549–HaloTag ligand], the “intracellular labeling by live-cell imaging” value (“intracellular labeling” for short) is “low intracellular signal”.
In the case of `C[Si]1(C)C2=CC(=[N+]3CC(C(=O)NCCOCCOCCNC(=O)CCCC[C@@H]4SC[C@@H]5NC(=O)N[C@@H]54)C3)C=CC2=C(c2cc(C(=O)NCCOCCOCCCCCCCl)ccc2C(=O)[O-])c2ccc(N3CCC3)cc21` (stereo partly drawn) [15HTL, biotin–JF646–HaloTag ligand], the “Pearson's correlation coefficient between rhodamine and GFP signals” value was determined as 0.89; the “intracellular labeling” value is “robust labeling and colocalization with mitochondrial-localized GFP”.
Take `C[Si]1(C)C2=CC(=[N+]3CC(F)(C(=O)NCCOCCOCCNC(=O)CCCC[C@@H]4SC[C@@H]5NC(=O)N[C@@H]54)C3)C=CC2=C(c2cc(C(=O)NCCOCCOCCCCCCCl)ccc2C(=O)[O-])c2ccc(N3CC(F)C3)cc21` (stereo partly drawn) [16HTL, biotin–JF635–HaloTag ligand]: the “Pearson's correlation coefficient between rhodamine and GFP signals” value is on record as 0.87; the “intracellular labeling” value was “robust labeling and colocalization with mitochondrial-localized GFP”.
As for `C[Si]1(C)c2cc(N3CC(F)C3)ccc2C2(OC(=O)c3ccc(C(=O)NCCOCCOCCCCCCCl)cc32)c2ccc(N3CC(F)C3)cc21` [6HTL, JF635–HaloTag ligand, reference compound], the “Pearson's correlation coefficient between rhodamine and GFP signals” value is given as 0.92.
